Assay results: patent US7235256B2, “Method of preventing parturient hypocalcemia in animals and compositions used therein” (RJ Innovation, priority 1999, dated 2007)

Experiments:
[1] = test system: non-lactating (dry) cows; assay: EDTA-infusion test for resistance to hypocalcemia; assay type: in vivo, cow; details: 8 EDTA-tests at 10 days intervals, normal = ionised blood calcium above 1 mmol/l
Excerpt: To investigate the induction of hypocalcemia by intravenous infusion of EDTA in cows, 6 non-lactating (dry) cows were used in this study. Three of these cows were untreated (cow Nos. 168, 169 and 170) and the other three cows (cow Nos. 172, 175 and 176) had been subjected to a pre-treatment consisting of daily doses of anionic salts (Wang and Beede, 1992). This pre-treatment is known to be effective in preventing milk fever. The latter cows were rumen fistulated to facilitate precise daily dosages of the anionic salts.
All cows were tested for resistance to hypocalcemia by the EDTA-infusion technique. A total of 8 EDTA-tests were performed per cow according to the standardised method of Mellau et al. (1998), at 10 days intervals. With the standardised test, infusion of EDTA was performed until the cow went down involuntarily, due to muscle weakness caused by the induced hypocalcemia. The time taken from this point and until the cow regained normal blood calcium concentration, which is defined as an ionised blood calcium value above 1 mmol/l, was recorded. This time is considered to represent the cows' calcium mobilisation rate and therefore also the cows' ability to resist hypocalcemia. The infusion periods varied between individual cows, but were typically in the range of 2–4 hours. […]

[2] = test system: dairy cows; assay: Repeated oral zinc oxide administration, serum calcium response; assay type: in vivo, cow; details: lactating cows
Method: Six dairy cows were used in this study: Two lactating cows and two dry cows were treated with zinc oxide by mouth at 120 mg/kg body weight, whereas two lactating cows served as untreated controls. Four doses of zinc oxide were given to the treated cows at one-week intervals. Venous blood samples were taken and serum stored at −37° C. for later total calcium determinations. For this purpose blood samples were taken daily from all six cows one hour after morning feeding. Extra samples were taken 5, 11, 23 and 35 hours after zinc oxide administration.

[3] = zinc oxide by mouth 120 mg/kg body weight

SMILES | time to regain normal blood calcium concentration (recovery time) after EDTA infusion [1] | change of calcium balance response with number of doses ([2]; four doses at one-week intervals) | minimum serum calcium concentration [2, 3] [mmol/L] | time of minimum serum calcium after administration [2, 3]
O=C(O)CN(CCN(CC(=O)O)CC(=O)O)CC(=O)O [EDTA, ethylenediaminetetraacetic acid] | greatly improved | – | – | –
[O]=[Zn] [zinc oxide] | – | less and less affected | 1.4 to 1.6 | about 24 hours
